{"source": "patent US9371337B2", "about": "“β-lactamase inhibitors” (The Regents of the University of California, priority 2011, dated 2016)", "target": "T1, AmpC β-lactamase (Escherichia coli, UniProt P00811)", "T1 construct": "made in house", "T1 sequence (P00811 20-377)": "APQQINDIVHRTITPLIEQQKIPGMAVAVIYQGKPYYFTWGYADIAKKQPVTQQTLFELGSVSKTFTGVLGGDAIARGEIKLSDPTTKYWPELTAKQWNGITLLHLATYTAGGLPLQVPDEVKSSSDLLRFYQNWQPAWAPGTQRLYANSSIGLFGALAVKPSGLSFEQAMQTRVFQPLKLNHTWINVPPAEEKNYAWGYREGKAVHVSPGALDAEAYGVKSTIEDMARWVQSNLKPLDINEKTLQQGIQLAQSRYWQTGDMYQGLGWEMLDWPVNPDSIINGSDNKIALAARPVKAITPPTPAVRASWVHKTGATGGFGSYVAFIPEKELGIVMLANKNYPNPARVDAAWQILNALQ", "experiment": "biochemical", "assay_type": "biochemical", "experimental": "FIG. 18. Representative IC50 curves. […] IC50 curves were obtained by measuring rates (in duplicates) at different inhibitor concentrations (x-axis) and by determining the residual activity (y-axis, in percentage). IC50 values were determined by non-linear regression and Ki values calculated using GraphPad software assuming competitive inhibition.\nSulfonamidomethaneboronic acids were dissolved in 100% DMSO at a concentration of 100 mM; more diluted stocks were prepared as necessary. […] The enzyme was expressed and purified as described (Usher, K. C. et al., Biochemistry 1998, 37, 16082-16092) and CENTA was purchased from Tydock Pharma.\nKinetic measurements were run at room temperature in 50 mM sodium-cacodylate pH 6.5 in the presence of 0.01% Triton-X to prevent non-specific inhibition via compound aggregation. […] (Kettner, C. A. and Shenvi, A. B., J. Biol. Chem. 1984, 259, 15106-15114) Reactions were performed in 1 mL cuvettes with 60 μM CENTA and initiated by adding 1.2 nM enzyme. […] (Weston, G. S. et al., J. Med. Chem. 1998, 41, 4577-4586) The first 180 sec of each reaction were used to measure initial rates. IC50 values were obtained by fitting binding data to a sigmoidal dose-response equation using GraphPad Prism (GraphPad software, Inc). Ki values were determined by the use of Cheng-Prusoff equation. (Cheng, Y. and Prusoff, W. H., Biochem. Pharmacol. 1973, 22, 3099-3108)", "note": "Where two headings read alike, the source gives them in different places."}
{"compound": "CS(=O)(=O)NCB(O)O", "note": "[Compound 3, Pinacol(methanesulfonylamino)methaneboronate]", "values": [{"measurement": "Ligand efficiency", "result": 0.91}, {"measurement": "Ki", "setting": "Ki vs AmpC, Table 8", "result": 800, "unit": "nM"}, {"measurement": "improvement of potency compared to the carboxamide analog", "setting": "ratio of Ki values", "result": 23, "unit": "fold"}, {"measurement": "Ki", "setting": "read-out: Ki", "result": 789, "unit": "nM"}]}
{"compound": "O=[N+]([O-])c1cccc(CS(=O)(=O)NCB(O)O)c1", "note": "[Compound 6]", "values": [{"measurement": "Ki", "setting": "Table 7, read-out: Ki Vs AmpC", "result": 189, "unit": "nM"}]}
{"compound": "COC(=O)c1ccc(CS(=O)(=O)NCB(O)O)cc1", "note": "[Compound 8]", "values": [{"measurement": "Ki", "setting": "Table 7, read-out: Ki Vs AmpC", "result": 120, "unit": "nM"}]}
{"compound": "CCOc1ccc2ccccc2c1S(=O)(=O)NCB(O)O", "note": "[Compound 11, (2-Ethoxy-naphthalene-1-sulfonylamino)methaneboronic acid]", "values": [{"measurement": "Ki", "setting": "read-out: Ki", "result": 670, "unit": "nM"}]}
{"compound": "O=S(=O)(Cc1ccccc1)N[C@@H](Cc1ccccc1)B(O)O", "note": "[Compound 16, (1R)-1-(phenylmethanesulfonylamino)-2-phenylethaneboronic acid]", "values": [{"measurement": "Ki", "setting": "Table 1, read-out: Ki", "result": 3720, "unit": "nM"}, {"measurement": "Ki", "setting": "Table 7, read-out: Ki Vs AmpC", "result": 3720, "unit": "nM"}]}
{"compound": "O=C(Cc1cccs1)N[C@@H](Cc1cccc(C(=O)O)c1)B(O)O", "note": "[Compound 17c, reference compound]", "values": [{"measurement": "Ki", "setting": "Table 1, read-out: Ki", "result": 39, "unit": "nM"}]}
{"compound": "C[C@H](NS(C)(=O)=O)B(O)O", "note": "[GBS32, (1R)-1-(Methylsulfonylamino)-1-ethaneboronic acid]", "values": [{"measurement": "Ki", "setting": "Ki Vs AmpC, Table 7", "result": 650, "unit": "nM"}]}
{"compound": "C[C@H](NS(=O)(=O)Cc1ccccc1)B(O)O", "note": "[GBS34, (1R)-1-(Phenylmethanesulfonylamino)-1-ethaneboronic acid]", "values": [{"measurement": "Ki", "setting": "Ki Vs AmpC, Table 7", "result": 310, "unit": "nM"}]}
{"compound": "O=C(Cc1cccs1)N[C@H](B(O)O)c1cccc(C(=O)O)c1", "note": "[SM23, reference compound]", "values": [{"measurement": "Ligand efficiency", "setting": "Table 5", "result": 0.55}]}
{"compound": "Pinacol(3-cyanopropane-1-sulfonylamino)methaneboronate [CR135]", "values": [{"measurement": "Ki", "setting": "Table 7, read-out: Ki Vs AmpC", "result": 200, "unit": "nM"}]}
{"compound": "Pinacol(isopropylsulfonylamino)methaneboronate [GBS22]", "values": [{"measurement": "Ki", "setting": "Table 7, read-out: Ki Vs AmpC", "result": 100, "unit": "nM"}]}
